Test results published in patent US20240158348A1, “HERBICIDAL CYCLIC AMIDES N-SUBSTITUTED WITH A HALOALKYLSULFONYLANILIDE GROUP” (FMC Corporation, priority 2021, published 2024).

Assays:
Assay type in all cases: in vivo
[1] = system: foxtail, giant (giant foxtail, Setaria faberi); experiment: Test C preemergence, giant foxtail; conditions: 0 is no effect, 100 is complete control
Method in brief: (§1)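 Herbicidal effect was estimated visually on a 0–100 scale 10 or 12 days after spraying. Formulation: non-phytotoxic solvent mixture with surfactant. Timing: directed soil spray after sowing, or postemergence on seedlings bearing one or two leaves.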

[2] = system: sedge, umbrella (small-flower umbrella sedge, Cyperus difformis); experiment: Test D flooded paddy test, umbrella sedge; design: key: 0 = no effect, 100 = complete control; conditions: 250 g ai/ha, Flood; applied to paddy water at 2-leaf stage; visual rating after 13 days; scale 0 (no effect) to 100 (complete control)
Method in brief: (§2)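 Test compounds applied directly to paddy water after pots were flooded to 3 cm above soil, with plants at 2-leaf stage; depth held throughout. Greenhouse for 13 days, then visual rating versus controls on 0–100 scale (0 no effect, 100 complete control); dash means no result.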

[3] = system: pigweed, palmer (palmer amaranth, Amaranthus palmeri); experiment: Test C postemergence, palmer amaranth; conditions: for Pigweed, Palmer plant response rating: visual injury, 0 to 100 scale (0 no effect, 100 complete control); for Plant response rating (0 to 100 scale), Pigweed, Palmer: 0 is no effect, 100 is complete control
Method in brief: as §1

[4] = system: goosegrass (Eleusine indica); experiment: Test C preemergence, goosegrass; conditions: 0 is no effect, 100 is complete control
Method in brief: (§3)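 Steps: sow in loam soil blended with sand; treat soil preemergence by directed spray, or treat young plants (2–10 cm, one to two leaves) postemergence; hold in greenhouse 10 or 12 days; rate injury visually relative to untreated controls on a 0–100 scale.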

[5] = system: wheat (Triticum aestivum); experiment: Test C postemergence, wheat; conditions: for Wheat plant response rating: visual injury, 0 to 100 scale (0 no effect, 100 complete control); for Plant response rating (0 to 100 scale), Wheat: 0 is no effect, 100 is complete control
Method in brief: as §1

[6] = system: barnyardgrass (Echinochloa crusgalli); experiment: Test D flooded paddy test, barnyardgrass; design: key: 0 = no effect, 100 = complete control; conditions: 250 g ai/ha, Flood; applied to paddy water at 2-leaf stage; visual rating after 13 days; scale 0 (no effect) to 100 (complete control)
Method in brief: as §2

[7] = system: soybean (Glycine max); experiment: Test C postemergence, soybean; conditions: for Soybean plant response rating: visual injury, 0 to 100 scale (0 no effect, 100 complete control); for Plant response rating (0 to 100 scale), Soybean: 0 is no effect, 100 is complete control
[8] = system: corn (Zea mays); experiment: Test C preemergence, corn; conditions: 0 is no effect, 100 is complete control
Method in brief: as §3

[9] = system: ragweed (common ragweed, Ambrosia artemisiifolia); experiment: Test C postemergence, ragweed; conditions: for Ragweed plant response rating: visual injury, 0 to 100 scale (0 no effect, 100 complete control); for Plant response rating (0 to 100 scale), Ragweed: 0 is no effect, 100 is complete control
Method in brief: as §1

| Compound | Plant response rating (0 to 100 scale), Foxtail, Giant ([1]; 31 g ai/ha Preemergence) | Plant response rating (0 to 100 scale), Foxtail, Giant ([1]; 125 g ai/ha Preemergence) | Plant response rating, Sedge, Umbrella [2] | Pigweed, Palmer plant response rating ([3]; 31 g ai/ha Postemergence) | Plant response rating (0 to 100 scale), Pigweed, Palmer ([3]; 125 g ai/ha Postemergence) | Plant response rating (0 to 100 scale), Goosegrass ([4]; 31 g ai/ha Preemergence) | Plant response rating (0 to 100 scale), Goosegrass ([4]; 125 g ai/ha Preemergence) | Wheat plant response rating ([5]; 31 g ai/ha Postemergence) | Plant response rating (0 to 100 scale), Wheat ([5]; 125 g ai/ha Postemergence) | Plant response rating, Barnyardgrass [6] | Soybean plant response rating ([7]; 31 g ai/ha Postemergence) | Plant response rating (0 to 100 scale), Soybean ([7]; 125 g ai/ha Postemergence) | Plant response rating (0 to 100 scale), Corn ([8]; 31 g ai/ha Preemergence) | Plant response rating (0 to 100 scale), Corn ([8]; 125 g ai/ha Preemergence) | Ragweed plant response rating ([9]; 31 g ai/ha Postemergence) | Plant response rating (0 to 100 scale), Ragweed ([9]; 125 g ai/ha Postemergence) | Pigweed, Palmer plant response rating ([3]; 125 g ai/ha Postemergence) | Wheat plant response rating ([5]; 125 g ai/ha Postemergence) | Soybean plant response rating ([7]; 125 g ai/ha Postemergence) | Ragweed plant response rating ([9]; 125 g ai/ha Postemergence) |
| --- | --- | --- | --- | --- | --- | --- | --- | --- | --- | --- | --- | --- | --- | --- | --- | --- | --- | --- | --- | --- |
| C#CCO/N=C1\CCN(c2cc(NS(=O)(=O)C(F)(F)F)c(C)cc2C)C1=O [Compound 13, N-[2,4-dimethyl-5-[2-oxo-3-[(2-propyn-1-yloxy)imino]-1-pyrrolidinyl]phenyl]-1,1,1-trifluoromethanesulfonamide] | 100 | 100 | 100 | 80 | 90 | 90 | 100 | 90 | 90 | 10 | 100 | 100 | 40 | 100 | 80 | 90 | – | – | – | – |
| Cc1cc(C)c(N2CCC(OC3CC3)C2=O)cc1NS(=O)(=O)C(F)(F)F (single isomer, unassigned) [Compound 30] | 100 | 100 | 98 | 60 | – | 90 | 100 | 70 | – | 95 | 50 | – | 90 | 90 | 90 | – | 90 | 70 | 60 | 90 |
| Cc1c(NS(=O)(=O)C(F)(F)F)cc(N2CCCC(OC3CC3)C2=O)c(C)c1F (centres unmarked) [Compound 35] | 90 | 100 | 95 | 40 | – | 100 | 100 | 60 | – | 0 | 60 | – | 30 | 50 | 60 | – | 70 | 60 | 60 | 90 |
| Cc1c(N2CCC(OC3CCC3)C2=O)cc(N(COC(=O)C(C)(C)C)S(=O)(=O)C(F)(F)F)c(C)c1F (centres unmarked) [Compound 28] | 70 | 100 | 95 | 50 | – | 70 | 100 | 20 | – | 60 | 50 | – | 0 | 20 | 80 | – | 90 | 60 | 60 | 80 |
| Cc1cc(C)c(N2CCC(O)C2=O)cc1NS(=O)(=O)C(F)(F)F (centres unmarked) [Compound 14] | 80 | 100 | 35 | 40 | 90 | 90 | 100 | 60 | 60 | 0 | 80 | 80 | 10 | 100 | 60 | 80 | – | – | – | – |
